Experimental data published in the NIST ThermoML archive (doi:10.1021/je400178k).
Numbers after ± are expanded uncertainties.

Test: molar heat capacity at constant pressure
Details: 101 kPa, Liquid, Small sample (50 mg) DSC

Structure (SMILES)	molar heat capacity at constant pressure (298.15 K) [J/K/mol]	molar heat capacity at constant pressure (303.15 K) [J/K/mol]	molar heat capacity at constant pressure (308.15 K) [J/K/mol]	molar heat capacity at constant pressure (313.15 K) [J/K/mol]	molar heat capacity at constant pressure (318.15 K) [J/K/mol]	molar heat capacity at constant pressure (323.15 K) [J/K/mol]	molar heat capacity at constant pressure (328.15 K) [J/K/mol]	molar heat capacity at constant pressure (333.15 K) [J/K/mol]	molar heat capacity at constant pressure (338.15 K) [J/K/mol]	molar heat capacity at constant pressure (343.15 K) [J/K/mol]	molar heat capacity at constant pressure (348.15 K) [J/K/mol]	molar heat capacity at constant pressure (353.15 K) [J/K/mol]
OCCN1CCNCC1 [N-(2-hydroxyethyl)piperazine]	285 ± 4.5	289.9 ± 4.6	292.9 ± 4.6	296 ± 4.6	298.9 ± 4.7	301.7 ± 4.7	305 ± 4.8	308.1 ± 4.8	311 ± 4.8	313.9 ± 4.9	316.5 ± 4.9	319 ± 4.9
CN1CCN(C)CC1 [1,4-dimethylpiperazine]	216.5 ± 3.7	221.7 ± 3.7	222.1 ± 3.7	223.4 ± 3.7	224.6 ± 3.8	225.3 ± 3.8	225.7 ± 3.8	227.5 ± 3.8	228.5 ± 3.8	229.6 ± 3.8	231.7 ± 3.8	235.9 ± 3.9
OCCN1CCOCC1 [4-morpholineethanol]	263.9 ± 4.2	265.3 ± 4.3	267.1 ± 4.3	269.2 ± 4.3	270.8 ± 4.3	272.6 ± 4.3	274.3 ± 4.4	276.2 ± 4.4	278.7 ± 4.4	281 ± 4.4	283.2 ± 4.5	284.9 ± 4.5
CN1CCNCC1 [N-methylpiperazine]	213.9 ± 3.6	214.4 ± 3.6	215 ± 3.6	215.7 ± 3.6	216.4 ± 3.7	216.9 ± 3.7	217.3 ± 3.7	217.2 ± 3.7	215.5 ± 3.6	216.2 ± 3.7	217.6 ± 3.7	218 ± 3.7
NCCCN1CCOCC1 [N-(3-aminopropyl)morpholine]	296.2 ± 4.6	298.2 ± 4.7	299.6 ± 4.7	301.2 ± 4.7	302.8 ± 4.7	304.5 ± 4.7	306.1 ± 4.8	307.9 ± 4.8	309.6 ± 4.8	311.3 ± 4.8	312.7 ± 4.9	313.4 ± 4.9
